Patent publication US6602880B2, “3-phenyl-3,7-diazabicyclo[3.3.1] nonane compounds, process for preparing them, pharmaceutical compositions containing them and use thereof to inhibit cardiac arrhythmia” (priority 2001, dated 2003)

Experiments:
[1] = tested on: mice; assay: Determination of the minimum toxic dose; assay type: in vivo; conditions: mouse p.o.; lowest dose causing death or severe toxic symptoms; maximum dose 300 mg/kg; observed 72 hours
Method: Male mice each having a weight of 20 to 25 g were administered maximum doses of 300 mg/kg of the test substance p.o. The animals were observed carefully for toxicity symptoms for 3 hours. Additionally all symptoms and deaths were recorded over a period of 72 hours after administration. Concomitant symptoms were likewise observed and recorded. If death or severe toxic symptoms were observed, further mice were administered increasingly lower doses until toxic symptoms no longer occurred. The lowest dose which caused death or severe toxic symptoms is indicated in the following Table A as the minimum toxic dose.

[2] = tested on: anaesthetised guinea pigs; assay: In vivo antiarrhythmic properties (ERP) and blood pressure under tachycardic conditions in anaesthetised guinea pigs; parameters: species or system guinea pig; conditions: i.v.
Excerpt: The effects of the substances on the effective refractory period (=ERP) and the blood pressure on i.v. administration with increased heart rate were investigated on anaesthetised guinea pigs. A bipolar stimulation catheter was inserted into the right ventricle of the animals via a jugular vein under full anaesthesia. The heart rates of the animals were kept at about 150% of their normal heart rates via this catheter by means of electrical stimulation during the entire investigation. A cannula for i.v. administration of the test substances was inserted in the other jugular vein. During the investigation, the systolic and the diastolic arterial blood pressure (=SAP and DAP) were measured in a carotid artery via a pressure gauge (Statham pressure transducer). The test substances were administered i.v. in increasing doses (cumulatively). Before administration of the first dose and in each case 8 minutes after administration of each dose, the ERP was determined by means of a double pulse protocol. The dose at which a prolongation of the ERP to 115% of the starting value was achieved was considered as the effective dose (=ERP-ED115). Effective doses for a hypotensive effect were considered as the dose at which the SAP was decreased to 85% of its starting value (=SAP-ED85), and the dose at which the DAP was decreased to 85% of its starting value (=DAP-ED85).

[3] = tested on: isolated papillary muscle of the right ventricle of guinea pigs; assay: In vitro functional refractory period on electrically stimulated papillary muscles from guinea-pig hearts; conditions: concentration prolonging FRP by 12 milliseconds; stimulation 3 Hz; 20 minutes after addition
Method: The heart was quickly removed from guinea pigs which had been sacrificed by a blow to the back of the neck and the papillary muscles of the right ventricle were fixed in organ baths through which temperature-controlled oxygenated nutrient solution flowed. The muscle preparations were electrically stimulated with a frequency of 3 Hz. The test substances were added to the organ baths in increasing concentrations (cumulatively). In each case 20 minutes after addition of the test substance, the functional refractory period was determined by means of a double pulse protocol. In each case a cumulative concentration/action curve was plotted from the measured values. The concentration at which a prolongation of the FRP by 12 milliseconds was achieved was calculated from this as the effective concentration (=FRP-EC+12ms).

[4] = tested on: isolated perfused rabbit hearts; assay: In vitro potential proarrhythmogenity on isolated perfused rabbit hearts (monophasic action potential); conditions: three hearts (n=3), one value each; for Instability: control about 7 ms; for Triangulation: control about 90 ms
Method: The extent of the potential proarrhythmogenity of Class III antiarrhythmic substances can be estimated using the measurement of electrophysiological parameters such as “instability” and “triangulation” (see below) on the monophasic action potential, derived from isolated perfused rabbit hearts. The pharmacological test set forth below was performed analogously to the method fundamentally described in L. M. Hondeghem et al., Circulation 103 (2001) 2004-2013 (referred to hereafter as “Hondeghem et al.”), in conjunction with L. M. Hondeghem, Journal of Cardiovascular Electrophysiology 5(8) (1994) 711-721 (referred to hereafter as “Hondeghem”). The hearts were quickly removed from rabbits which had been sacrificed by a blow to the back of the neck, and were immediately perfused in a Langendorff arrangement under constant pressure (80 cm H2O) with temperature-controlled oxygenated nutrient solution. The heart was stimulated with different stimulation protocols using two stimulation electrodes which were each arranged in the region of the right and left crus of the bundle of His (cf. “Hondeghem et al.”). Two further electrodes (one discharge electrode endocardially in the region of the septum of the left ventricle and a reference electrode epicardially on the left ventricle) served to discharge the monophasic action potential.
Using the monophasic action potential duration with different repolarisation levels (APD10-90; “APD10” designates the action potential duration until the occurrence of 10% of repolarisation), the following parameters were derived as indicators of the proarrhythmogenity:
(1) Instability: The change in the APD60 from heartbeat to heartbeat is designated “instability”. Under control conditions, this value is on average about 7 milliseconds (=ms). Greater deviations from this average value towards a longer duration (>7 ms) indicate an increased probability of occurrence for proarrhythmias caused by the test substances investigated.
(2) Triangulation: The repolarisation time in ms from APD30 to ADP90 is designated “triangulation”. Under control conditions, this value is usually about 90 ms.
The results obtained with the method described above on three hearts (n=3) in each case are reproduced in the following Table D.

[5] = target: T1, iKs (Canis lupus familiaris, UniProt A0A8I3N8W8); assay: Blocking action on slow delayed rectifier potassium current iKs, whole-cell patch-clamp on dog cardiac muscle cells; assay type: cell-based; conditions: dog left ventricle cardiac muscle cells; 1 μM nisoldipine and 2 μM E-4031 added; holding potential -40 mV
T1 construct: the individualised cardiac muscle cells are investigated electrophysiologically using the “whole-cell patch-clamp” method; from tissue; host or cells: isolated dog left ventricular cardiac muscle cells
T1 sequence (A0A8I3N8W8 1-676): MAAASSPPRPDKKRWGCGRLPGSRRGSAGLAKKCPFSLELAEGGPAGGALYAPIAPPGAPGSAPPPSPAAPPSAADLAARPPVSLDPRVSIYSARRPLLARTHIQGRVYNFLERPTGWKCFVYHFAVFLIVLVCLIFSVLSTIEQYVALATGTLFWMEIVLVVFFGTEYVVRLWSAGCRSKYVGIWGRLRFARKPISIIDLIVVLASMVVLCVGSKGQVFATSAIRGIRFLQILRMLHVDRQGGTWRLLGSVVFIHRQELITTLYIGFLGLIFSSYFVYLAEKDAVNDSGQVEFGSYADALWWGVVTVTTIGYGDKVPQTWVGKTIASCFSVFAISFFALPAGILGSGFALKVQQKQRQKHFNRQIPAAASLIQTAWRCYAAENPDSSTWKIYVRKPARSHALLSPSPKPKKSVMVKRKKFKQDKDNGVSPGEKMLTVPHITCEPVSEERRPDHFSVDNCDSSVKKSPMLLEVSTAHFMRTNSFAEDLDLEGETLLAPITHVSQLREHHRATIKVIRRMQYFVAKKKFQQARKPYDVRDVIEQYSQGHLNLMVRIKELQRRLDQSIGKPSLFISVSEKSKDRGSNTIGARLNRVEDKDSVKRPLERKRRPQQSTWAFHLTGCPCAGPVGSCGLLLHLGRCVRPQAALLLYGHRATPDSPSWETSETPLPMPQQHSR
Method: The iKs can be measured selectively in the manner described below: the hearts are quickly removed from anaesthetised dogs and a muscle section from the left ventricle is perfused with collagenase-containing solution via an arterial vessel. The well-dissociated tissue is comminuted and the individualised cardiac muscle cells are investigated electrophysiologically using the “whole-cell patch-clamp” method (cf. O. P. […] The iKs is then determined using the current amplitude immediately after a 5-second pulse protocol of -40 mV holding potential at most +50 mV depolarisation. The iKr (HERG) can be measured selectively in the manner stated below: to measure the iKr, a cell line (human embryonal kidney cells, HEK293; see e.g. American Tissue Culture Collection (=ATCC) No.: CRL-1573) is used, which is stably transfected with the gene for the iKr (HERG) (cf. Z. Zhou et al., Biophysical Journal 74(1) (1998) 230-241). […] The iKr is determined using the current amplitude at -40 mV holding potential immediately after a 500 ms pulse protocol of -75 mV holding potential at most +10 mV depolarisation. That substance concentration at which 50% of the maximum current is blocked (IC50 %) is determined from the inhibitions of the corresponding current at different substance concentrations.

[6] = target: T2, iKr (HERG) (Homo sapiens, UniProt Q12809); assay: Blocking action on rapid delayed rectifier potassium current iKr (HERG), HEK293 cells stably transfected; assay type: cell-based; conditions: HEK293 cells stably transfected with HERG
T2 construct: expressed in transfected cells; host or cells: HEK293 (ATCC CRL-1573), stably transfected
T2 sequence (Q12809 whole entry): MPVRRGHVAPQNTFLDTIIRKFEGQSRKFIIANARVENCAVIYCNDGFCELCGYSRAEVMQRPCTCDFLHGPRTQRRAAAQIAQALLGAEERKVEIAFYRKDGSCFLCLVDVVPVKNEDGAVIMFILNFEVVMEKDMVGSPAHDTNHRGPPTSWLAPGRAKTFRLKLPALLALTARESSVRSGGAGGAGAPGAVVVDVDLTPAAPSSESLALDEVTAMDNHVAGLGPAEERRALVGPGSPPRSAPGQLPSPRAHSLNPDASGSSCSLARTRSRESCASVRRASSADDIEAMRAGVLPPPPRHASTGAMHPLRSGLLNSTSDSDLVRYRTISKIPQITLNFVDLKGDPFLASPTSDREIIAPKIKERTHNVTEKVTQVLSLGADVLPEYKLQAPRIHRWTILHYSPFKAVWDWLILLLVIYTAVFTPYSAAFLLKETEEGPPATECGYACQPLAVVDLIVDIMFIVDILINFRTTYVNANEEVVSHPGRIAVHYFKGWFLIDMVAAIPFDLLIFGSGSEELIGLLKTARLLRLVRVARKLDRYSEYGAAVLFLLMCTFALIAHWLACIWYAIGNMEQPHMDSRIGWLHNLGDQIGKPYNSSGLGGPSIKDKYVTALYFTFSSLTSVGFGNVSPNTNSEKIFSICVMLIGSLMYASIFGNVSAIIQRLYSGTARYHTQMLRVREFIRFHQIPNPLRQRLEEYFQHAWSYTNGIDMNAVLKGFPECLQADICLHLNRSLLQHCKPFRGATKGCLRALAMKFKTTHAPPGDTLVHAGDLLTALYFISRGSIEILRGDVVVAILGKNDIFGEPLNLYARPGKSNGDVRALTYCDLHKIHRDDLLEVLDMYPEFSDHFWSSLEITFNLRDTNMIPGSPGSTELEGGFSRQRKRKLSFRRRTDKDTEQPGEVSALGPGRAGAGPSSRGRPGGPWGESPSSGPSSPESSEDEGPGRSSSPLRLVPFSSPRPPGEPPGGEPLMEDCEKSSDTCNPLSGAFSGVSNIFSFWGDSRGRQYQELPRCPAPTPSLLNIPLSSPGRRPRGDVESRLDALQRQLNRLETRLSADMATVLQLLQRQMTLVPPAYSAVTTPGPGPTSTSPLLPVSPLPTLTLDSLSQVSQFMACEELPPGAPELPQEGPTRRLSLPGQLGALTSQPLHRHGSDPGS
Method: The iKr (HERG) can be measured selectively in the manner stated below: to measure the iKr, a cell line (human embryonal kidney cells, HEK293; see e.g. American Tissue Culture Collection (=ATCC) No.: CRL-1573) is used, which is stably transfected with the gene for the iKr (HERG) (cf. Z. Zhou et al., Biophysical Journal 74(1) (1998) 230-241). […] The iKr is determined using the current amplitude at −40 mV holding potential immediately after a 500 ms pulse protocol of −75 mV holding potential at most +10 mV depolarisation. That substance concentration at which 50% of the maximum current is blocked (IC50 %) is determined from the inhibitions of the corresponding current at different substance concentrations.

[7] = tested on: anaesthetised cats; assay: In vivo fibrillation threshold in anaesthetised cats; parameters: species or system cat; conditions: more marked on the atrium than on the ventricle
Excerpt: Such an atrioselective increase in the fibrillation threshold is an indication that the tested compound has a beneficial action profile with a reduced proarrhythmogenity risk.

Compound	Minimum toxic dose [1] [mg/kg]	Antiarrhythmic action ERP-ED115 ([2]; cumulative doses, dose prolonging ERP to 115% of starting value, heart rate about 150% of normal) [µmol/kg]	Vasodepression ED85 DAP ([2]; dose decreasing diastolic arterial pressure to 85% of starting value, >> = no tendency to vasodepression at the doses tested)	Vasodepression ED85 SAP ([2]; dose decreasing systolic arterial pressure to 85% of starting value, >> = no tendency to vasodepression at the doses tested)	Antiarrhythmic action FRP-EC+12 ms [3] [µmol/L]	Instability ([4]; 0.3 μM)	Triangulation ([4]; 0.3 μM)	Instability ([4]; 1 μM)	Triangulation ([4]; 1 μM)	IC50 [5] [nM]	IC50 [6] [nM]	increase in the fibrillation threshold ([7]; administration i.v.)	increase in the fibrillation threshold ([7]; administration p.o.)
CCCCN1CC2CN(c3ccc([N+](=O)[O-])cc3[N+](=O)[O-])CC(C1)C2(C)C [Example 1, 7-(n-Butyl)-3-(2,4-dinitrophenyl)-9,9-dimethyl-3,7-diazabicyclo[3.3.1]nonane]	300	0.4	>>10 μmol/kg	>>10 μmol/kg	0.6	–	–	–	–	–	–	–	–
CCCCN1CC2CN(c3ccc(C#N)cc3)CC(C1)C21CCCC1.O=C(O)C(O)C(O)C(=O)O [Example 4, 7-(n-Butyl)-3-(4-cyanophenyl)-9,9-tetramethylene-3,7-diazabicyclo[3.3.1]nonane Hydrogen Tartrate]	–	–	–	–	0.8	6/3/3	48/64/62	6/25/7	52/79/79	700	20	dosage-dependent, clear, long-lasting increase in the fibrillation threshold	dosage-dependent, clear, long-lasting increase in the fibrillation threshold
